Laboratory results: patent US9133242B2, “Peptide for use as a medicament, in particular for the treatment of cancer” (priority 2010, dated 2015)
Entries after “also recorded” stand apart in the source; their conditions may differ. Where no end group is shown, it is not given here.

Experiments:
Type in all cases: cell-based
[1] = tested on: TX 2 cells (line derived from breast tumors which no longer respond to Taxol); assay: Growth inhibition of Taxol-resistant TX 2 cells; conditions: after 24 H of culture
Experimental: (§1) The studies were carried out on two cell lines, TX 1 and TX 2, derived from breast tumors which no longer respond to Taxol. […] 1 and the peptide of SEQ. 7. […]

[2] = tested on: TX 1 cells (line derived from breast tumors which no longer respond to Taxol); assay: Growth inhibition of Taxol-resistant TX 1 cells; conditions: after 24 H of culture
Experimental: as §1

A 549 (Human lung tumor) = assay: MTT cell viability, A549 lung cancer line; conditions: variants tested on the A549 line; for evaluation of the activity (in words): compared with peptide SEQ. 1
Experimental: Approximately 10 000 cells were seeded, in a volume of 0.2 mL per well, into 96-well microplates for 24 hours before treatment with the peptide of SEQ. 1. The cells were incubated for 48 to 72 hours at 37° C. in a CO2 incubator in the presence or absence of the peptide of SEQ. 1 at various concentrations.
Following this incubation, MTT reagent or 3-(4,5-dimethyl[…])-2,5-diphenyltetrazolium bromide (0.5 mg/ml in a volume of 0.1 ml) was added to each well and incubated for 2 hours at 37° C.
The tetrazolium ring contained by the MTT is then reduced by the succinate dehydrogenase of the live cells, to give formazan. Next, the supernatant was removed and 0.1 ml of lysis buffer (isopropanol containing 10% of triton×100 and 10% of 1N HCl) was added in order to dissolve the bluish violet formazan precipitate formed. After a few minutes, the absorbance was determined at ambient temperature using a microplate reader at a test wavelength of 562 nm. Wells not comprising peptide of SEQ. 1 were used so as to verify the viability of control cells. IC 50 (concentration of peptide of SEQ. 1 causing 50% cytotoxicity on these cell lines) values for each cell variety were evaluated by means of the ratio of the absorbance of the treated cells to the absorbance of the control cells. […]

[3] = tested on: FIBRO 1 and FIBRO 2 nontumorigenic fibroblast cells; assay: Immunofluorescent labeling of microtubule network, healthy fibroblasts; conditions: human fibroblasts FIBRO 1 and FIBRO 2, 15 μM
Experimental: FIG. 4 represents photos of non-tumor cell lines, FIBRO 1 and FIBRO 2 (fibroblast cells), treated with the peptide of SEQ. 1 at 15 μM and not treated with this peptide (control);
The specific activity of the peptide of SEQ. Two varieties of nontumorigenic fibroblast cells: FIBRO 1 and FIBRO 2, were brought into contact with the peptide of SEQ. 1 in order to see whether the microtubule network of healthy cells was also disrupted by the peptide. […] 1 (no modification of polymerized tubulin density), at the very least at concentrations of peptide of SEQ. 1 used for the cancer cells (15 μM). This observation represents an important advance of the present invention.

INWKKIAKKVAGML-NH2 [SEQ. 7, INWKKIAKKVAGML-NH2]
growth inhibition [1]: significant
growth inhibition [2]: significant
evaluation of the activity (in words) (A 549 (Human lung tumor)): absolutely equivalent to the peptide SEQ. 1; also recorded: Very good activity

INWLAIAAKVAGML [SEQ. 4, INWLAIAAKVAGML-NH2]
evaluation of the activity (in words) (A 549 (Human lung tumor)): absolutely equivalent to the peptide SEQ. 1; also recorded: Very good activity

INWLAIAKKVAGML [SEQ. 3, INWLAIAKKVAGML-NH2]
evaluation of the activity (in words) (A 549 (Human lung tumor)): absolutely equivalent to the peptide SEQ. 1; also recorded: Very good activity

INWLKIAKKVAG-NH2 [SEQ. 19, INWLKIAKKVAG-NH2]
evaluation of the activity (in words) (A 549 (Human lung tumor)): Medium activity

INWLKIAKKVAGM-NH2 [SEQ. 18, INWLKIAKKVAGM-NH2]
evaluation of the activity (in words) (A 549 (Human lung tumor)): Medium activity

INWLKIAKKVAGML [SEQ. 2]
IC50 (A 549 (Human lung tumor)): ~15 µM
evaluation of the activity (in words) (A 549 (Human lung tumor)): Medium activity

INWLKIAKKVAGML-NH2 [SEQ. 1, INWLKIAKKVAGML-NH2]
modification of polymerized tubulin density in healthy cells [3]: do not respond at all

INWLKIAKKVKGML [SEQ. 9, INWLKIAKKVKGML-NH2]
evaluation of the activity (in words) (A 549 (Human lung tumor)): absolutely equivalent to the peptide SEQ. 1; also recorded: Very good activity
